Tests used:
EIN3 = EIN3 protein level (Western blot) and pEBS:GUS staining; format: in vivo, Arabidopsis thaliana; conditions: 1 μM ACC, 50, 100 and 200 μM PZA
[1] = test system: ACC conjugating enzymes (ACC and M-ACC content of eto1-2 seedlings); experiment: Quantification of ACC and M-ACC; format: in vivo, Arabidopsis thaliana; conditions: 10-day-old green seedlings, 50 μM PZA
Experimental: 10-day-old green seedlings of eto1-2 under different treatments were ground in liquid nitrogen, and extracted with 5% SSA (sulfosalicylic acid). For ACC measurement, the extract was oxidized with 2 mM HgCl2, 0.33% NaOCl and 0.2 M NaOH, reacted on ice for 4 min, and then the ethylene production was determined with GC-FID. For M-ACC measurement, the extract was hydrolyzed using 2 M HCl followed by oxidization and ethylene production determination, and the content of ACC and M-ACC were calculated based on the ethylene production and efficiency of oxidization.

[2] = test system: Arabidopsis PSB-D suspension cultured cells; experiment: Wayne Test, conversion of PZA to POA in suspension cultured cells; format: cell-based, Arabidopsis thaliana; conditions: 500 μM PZA, 24 h, abolished in boiled cells
Experimental: 500 μM PZA were added to 50 ml Arabidopsis suspension cell log phase cultures or boiled cultures and incubated at 27 °C for 24 h. 1 ml cell culture was collected after centrifugation, and 10 μl 2% ferrous sulfate was added to the supernatant for colour development. The absorbance at 450 nm of each samples was measured by spectrophotometer and the POA concentration was calculated according to the POA-Abs450 standard curve drawn using the reference solutions of POA.
Arabidopsis suspension cells were cultured in liquid MS medium in the presence or absence of 500 μM PZA for 24 h. The culture supernatant was collected by centrifugation and alkalized (pH>11) using sodium hydroxide (NaOH), followed by extracting with ethyl acetate twice to eliminate lipid-soluble molecules. The aqueous phase was collected and acidified (pH<2) using hydrochloric acid (HCl). The protonated cultures were extracted with ethyl acetate five times to enrich POA. The resulting samples were concentrated by reduced pressure distillation and analysed using a Fourier Transform Ion Cyclotron Resonance Mass Spectrometer (Solarix XR, Bruker).

AtNIC2 = biological target: T1, AtNIC2 (Arabidopsis thaliana, UniProt Q9FMX7); experiment: In vitro PZase assay (TLC, NMR); format: biochemical; conditions: 5 mM PZA, 12 h, 30 °C
T1 sequence (Q9FMX7 1-198): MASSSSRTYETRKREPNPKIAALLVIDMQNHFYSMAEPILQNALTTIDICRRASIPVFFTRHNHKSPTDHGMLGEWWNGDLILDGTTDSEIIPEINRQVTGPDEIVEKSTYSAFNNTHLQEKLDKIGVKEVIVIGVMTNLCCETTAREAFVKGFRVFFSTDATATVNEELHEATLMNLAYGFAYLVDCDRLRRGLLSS
Source text: (§1) Silica TLC plates were developed in dichloromethane/methanol (3:1), and analysed with ultraviolet.
For NMR analysis, the AtNIC2-catalysed PZase reaction was acidified using HCl and extracted using ethyl acetate. The solvent was removed by reduced pressure distillation. The sample was then re-dissolved in dimethyl sulfoxide-d6 and analysed using Bruker-400 MHz NMR (ARX400, Bruker).

[3] = test system: ethylene production of Arabidopsis seedlings; experiment: Measurement of ethylene production of seedlings (GC-FID); format: in vivo, Arabidopsis thaliana; conditions: etiolated and green seedlings, 50 μM
Experimental: Ethylene production was determined as follows: 30 3-day-old etiolated or 5-day-old green seedlings of Col-0, eto1-2 or other mutants were selected randomly and sealed in a 30 ml vial containing 3 ml liquid MS medium supplemented with indicated treatments. The vial was sealed with a rubber stopper for 24 h at 22 °C prior to ethylene sampling. A 250 μl sample of the headspace gas was withdrawn using a gas-tight syringe from each chamber through the septum stopper, and injected into a gas chromatograph (Agilent 6890NGC, Agilent Technologies, USA) that was equipped with a HP-PLOTQ column (40 m × 530 μm × 40 μm) and a flame ionization detector (FID)[44]. Separations were carried out at 60 °C using N2 as the carrier gas. The area of the ethylene peak was integrated with Agilent Chemstation and results were expressed as the average relative ethylene production (%) of each treatment.

GA response = experiment: GA response, pRGA::GFP-RGA reporter seedlings; format: in vivo, Arabidopsis thaliana; conditions: pRGA::GFP-RGA seedlings, 20, 50, 100 μM PZA
Experimental: (§2) GFP fluorescence and propidium iodide staining signals in roots were detected using Zeiss LSM-710 microscope. All seedlings were grown in the dark for 3 days on MS medium supplemented with the indicated treatments, and then mounted on glass slides and observed in water. For propidium iodide staining, roots were visualized in the presence of propidium iodide without fixation. ImageJ was used to process images and to quantify the fluorescent intensity of GFP.

AtACO2 = AtACO2 (Arabidopsis thaliana, UniProt Q41931); experiment: ACO enzymatic activity assay and kinetic analysis (ethylene by GC-FID); format: biochemical; conditions: even at a high concentration (2 mM)
AtACO2, sequence (Q41931 1-303): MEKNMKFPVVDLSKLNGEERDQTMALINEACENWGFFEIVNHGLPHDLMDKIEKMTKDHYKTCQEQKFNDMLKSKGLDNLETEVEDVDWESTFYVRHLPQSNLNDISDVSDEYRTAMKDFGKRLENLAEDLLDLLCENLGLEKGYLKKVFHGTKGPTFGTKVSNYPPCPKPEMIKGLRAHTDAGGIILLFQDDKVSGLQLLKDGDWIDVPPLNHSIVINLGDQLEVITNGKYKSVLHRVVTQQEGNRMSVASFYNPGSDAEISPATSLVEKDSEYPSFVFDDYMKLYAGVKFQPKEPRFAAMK

AtNIC3 = biological target: T2, AtNIC3 (Arabidopsis thaliana, UniProt Q9FMX8); experiment: In vitro PZase assay (TLC); format: biochemical; conditions: 5 mM PZA, 12 h, 30 °C
T2 sequence (Q9FMX8 1-198): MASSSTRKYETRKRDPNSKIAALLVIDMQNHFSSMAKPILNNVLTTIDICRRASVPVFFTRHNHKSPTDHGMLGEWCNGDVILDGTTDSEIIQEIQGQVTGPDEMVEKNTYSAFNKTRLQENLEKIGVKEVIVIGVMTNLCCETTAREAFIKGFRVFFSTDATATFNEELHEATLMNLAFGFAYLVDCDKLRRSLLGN
Source text: as §1

[4] = test system: Arabidopsis PSB-D suspension cultured cells; experiment: Ethylene production of suspension cultured cells; format: cell-based, Arabidopsis thaliana
auxin response = experiment: Auxin response, pDR5::GFP reporter lines; format: in vivo, Arabidopsis thaliana; conditions: pDR5::GFP/Col-0 and pDR5::GFP/ein2-5
Experimental: as §2

[5] = test system: Arabidopsis etiolated seedlings (Col-0, eto1-2, ctr1-1, ein2-5); experiment: Ethylene response phenotype of 3-day-old etiolated seedlings (hypocotyl and root length, root hairs, root cells); format: in vivo, Arabidopsis thaliana
anthocyanin accumulation = experiment: Anthocyanin measurement; format: in vivo, Arabidopsis thaliana; conditions: 6-day-old Col-0 green seedlings
Source text: 6-day-old green seedlings grown on MS medium supplemented with different concentration of PZA were sampled for anthocyanin measurement by spectrophotometry. The content of anthocyanin is presented as (A535−A650)/g.

Which results are given for `NC(=O)c1cnccn1` [PZA, pyrazinamide]?
ACC-induced EIN3 protein accumulation and transcriptional activation of target promoter (EIN3): inhibited; ACC level in eto1-2 [1]: slight increase; M-ACC level in eto1-2 [1]: almost no change; conversion into POA in PSB-D culture [2]: converted into POA; conversion of PZA into POA by AtNIC2 (AtNIC2): able to convert PZA into POA; ethylene production of eto1-2 [3]: effectively inhibited; effect on GA response (GA response): virtually no effect; inhibition of the activity of AtACO2 (AtACO2): no inhibition; conversion of PZA into POA by AtNIC3 (AtNIC3): able to convert PZA into POA; ethylene production in suspension cultured cells [4]: inhibited; effect on auxin response (auxin response): EIN2-dependent manner; cell elongation in the root maturation zone of eto1-2 ([5]; 50 μM): promoted cell elongation; root hair formation of eto1-2 ([5]; 50 μM): effectively suppressed; size of the cell division zone of eto1-2 root ([5]; 50 μM): little effect; short-root and short-hypocotyl phenotype of eto1-2 ([5]; 3-day-old etiolated eto1-2 seedlings, MS medium with compound (50 μM shown)): partially suppressed; phenotype of ethylene signalling mutants ctr1-1 and ein2-5 ([5]; 3-day-old etiolated seedlings): little effect; ACC-induced short hypocotyl and root phenotype ([5]; Col-0, 1 μM ACC, 50 or 100 μM PZA): significantly suppressed; ethylene-induced phenotype ([5]; Col-0, 2 p.p.m. ethylene, 50 or 100 μM PZA): no effect; lengths of hypocotyls and roots of wild-type (Col-0) ([5]; etiolated seedlings, increasing doses (1-100 μM)): slightly promoted; effect on anthocyanin accumulation (anthocyanin accumulation): virtually no effect
